Like-named read-outs stand apart in the source and are kept apart here.
How the values were obtained:
BTK = BTK (Homo sapiens, UniProt Q06187); experiment: Degradation of BTK protein in Namalwa cells (Western blot; DC50, Dmax); conditions: for DC50: BTK degradation, cell line not given
JeKo-1 cells = experiment: Antiproliferative effect, MTS cell viability assay, JeKo-1 cells; type: cell-based; conditions: Homo sapiens; JeKo-1 mantle cell lymphoma cells; read-out: IC50 (anti-proliferation) JeKO-1 cells
Description: (§1) Antiproliferative effect of the exemplary compounds was assessed in B-cell malignancy models.
(§2) To assess the effect of the exemplary compounds on cell viability in B-cell malignancy models by degradation of BTK protein, Mino and JeKo-1 cells were treated with varying concentrations of Ibrutinib (0, 0.001, 0.01, 0.1, 1, 10 μM). Under these conditions, cell viability was determined by an MTS assay. Cytotoxicity was assayed by the determination of reduced tetrazolium (formazan) created by metabolically active cells as detected at 490 nm absorbance using a microplate reader (BMG Labtech, Cary, NC, USA).
(§3) The exemplary compounds attenuated the viability of Mino and JeKo-1 cells in a concentration-dependent manner at 72 h post treatment. Results are shown in Table 1 for each exemplary compound.

Mino cells = experiment: Antiproliferative effect, MTS cell viability assay, Mino cells; type: cell-based; conditions: Homo sapiens, Mino mantle cell lymphoma cells, read-out: IC50 (anti-proliferation) Mino cells
Description: as §1, §2, §3

Chain of BTK (Q06187 whole entry): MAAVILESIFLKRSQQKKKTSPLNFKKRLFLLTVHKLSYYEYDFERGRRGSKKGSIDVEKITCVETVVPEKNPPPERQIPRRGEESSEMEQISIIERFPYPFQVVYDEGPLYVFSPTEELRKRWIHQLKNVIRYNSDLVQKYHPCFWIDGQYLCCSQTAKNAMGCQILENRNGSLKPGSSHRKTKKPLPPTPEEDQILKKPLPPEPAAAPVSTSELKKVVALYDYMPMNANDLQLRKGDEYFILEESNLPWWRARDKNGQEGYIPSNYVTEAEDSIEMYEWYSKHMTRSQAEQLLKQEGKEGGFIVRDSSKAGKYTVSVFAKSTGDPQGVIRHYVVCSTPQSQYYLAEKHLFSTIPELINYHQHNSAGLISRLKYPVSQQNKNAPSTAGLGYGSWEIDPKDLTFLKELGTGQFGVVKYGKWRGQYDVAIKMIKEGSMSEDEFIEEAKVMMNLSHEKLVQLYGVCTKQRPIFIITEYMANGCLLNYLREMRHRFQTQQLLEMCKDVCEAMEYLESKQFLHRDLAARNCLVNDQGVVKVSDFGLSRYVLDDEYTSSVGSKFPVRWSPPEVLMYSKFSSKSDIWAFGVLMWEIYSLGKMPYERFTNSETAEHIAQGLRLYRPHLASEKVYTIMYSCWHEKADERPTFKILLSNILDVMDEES

| Compound | Dmax (BTK) | DC50 (BTK) | IC50 (JeKo-1 cells) | IC50 (Mino cells; MINO) | degradation of BTK protein (BTK; Namalwa B lymphocyte cells, various concentrations, 24 hours, Western blot) | IC50 (Mino cells) |
| --- | --- | --- | --- | --- | --- | --- |
| Nc1ncnc2c1c(-c1ccc(Oc3ccccc3)cc1)nn2C1CCN(CC2CCN(CCN3CCN(c4ccc5c(c4)CN(C4CCC(=O)NC4=O)C5=O)CC3)CC2)CC1 (stereo not shown) [Compound 204, 3-(5-(4-(2-(4-((4-(4-amino-3-(4-phenoxyphenyl)-1H-pyrazolo[3,4-d]pyrimidin-1-yl)piperidin-1-yl)methyl)piperidin-1-yl)ethyl)piperazin-1-yl)-1-oxoisoindolin-2-yl)piperidine-2,6-dione] | > 90% | 10 to 50 nM | 1000 to 10000 nM | < 1000 nM |  |  |
| Nc1ncnc2c1c(-c1ccc(Oc3ccccc3)cc1)nn2C1CCN(CC2CCN(CCN3CCC(c4ccc5c(c4)C(=O)N(C4CCC(=O)NC4=O)C5=O)CC3)CC2)CC1 (stereo not shown) [Compound 205, 5-(1-(2-(4-((4-(4-amino-3-(4-phenoxyphenyl)-1H-pyrazolo[3,4-d]pyrimidin-1-yl)piperidin-1-yl)methyl)piperidin-1-yl)ethyl)piperidin-4-yl)-2-(2,6-dioxopiperidin-3-yl)isoindoline-1,3-dione] | > 90% | 10 to 50 nM | 1000 to 10000 nM | < 1000 nM |  |  |
| Nc1ncnc2c1c(-c1ccc(Oc3ccccc3)cc1)nn2C1CCN(CC2CCN(CCN3CCC(c4ccc5c(c4)CN(C4CCC(=O)NC4=O)C5=O)CC3)CC2)CC1 (stereo not shown) [Compound 206, 3-(5-(1-(2-(4-((4-(4-amino-3-(4-phenoxyphenyl)-1H-pyrazolo[3,4-d]pyrimidin-1-yl)piperidin-1-yl)methyl)piperidin-1-yl)ethyl)piperidin-4-yl)-1-oxoisoindolin-2-yl)piperidine-2,6-dione] | > 90% | 10 to 50 nM | < 1000 nM | < 1000 nM |  |  |
| Nc1ncnc2c1c(-c1ccc(Oc3ccccc3)cc1)nn2C1CCN(CC2CCN(CCCN3CCN(c4ccc5c(c4)C(=O)N(C4CCC(=O)NC4=O)C5=O)CC3)CC2)CC1 (stereo not shown) [Compound 207] | > 75% | > 50 nM | > 10000 nM | > 10000 nM |  |  |
| Nc1ncnc2c1c(-c1ccc(Oc3ccccc3)cc1)nn2C1CCN(CC2CCN(CCCN3CCN(c4ccc5c(c4)CN(C4CCC(=O)NC4=O)C5=O)CC3)CC2)CC1 (stereo not shown) [Compound 208, 3-(5-(4-(3-(4-((4-(4-amino-3-(4-phenoxyphenyl)-1H-pyrazolo[3,4-d]pyrimidin-1-yl)piperidin-1-yl)methyl)piperidin-1-yl)propyl)piperazin-1-yl)-1-oxoisoindolin-2-yl)piperidine-2,6-dione] | > 75% | > 50 nM | > 10000 nM | > 10000 nM |  |  |
| Nc1ncnc2c1c(-c1ccc(Oc3ccccc3)cc1)nn2C1CCN(CC2CCN(CCCN3CCC(c4ccc5c(c4)C(=O)N(C4CCC(=O)NC4=O)C5=O)CC3)CC2)CC1 (stereo not shown) [Compound 209, 5-(1-(3-(4-((4-(4-amino-3-(4-phenoxyphenyl)-1H-pyrazolo[3,4-d]pyrimidin-1-yl)piperidin-1-yl)methyl)piperidin-1-yl)propyl)piperidin-4-yl)-2-(2,6-dioxopiperidin-3-yl)isoindoline-1,3-dione] | > 75% | 10 to 50 nM | > 10000 nM | > 10000 nM |  |  |
| Nc1ncnc2c1c(-c1ccc(Oc3ccccc3)cc1)nn2C1CCN(CC2CCN(CCCN3CCC(c4ccc5c(c4)CN(C4CCC(=O)NC4=O)C5=O)CC3)CC2)CC1 (stereo not shown) [Compound 210, 3-(5-(1-(3-(4-((4-(4-amino-3-(4-phenoxyphenyl)-1H-pyrazolo[3,4-d]pyrimidin-1-yl)piperidin-1-yl)methyl)piperidin-1-yl)propyl)piperidin-4-yl)-1-oxoisoindolin-2-yl)piperidine-2,6-dione] | > 75% | 10 to 50 nM | 1000 to 10000 nM | 1000 to 10000 nM |  |  |
| Nc1ncnc2c1c(-c1ccc(Oc3ccccc3)cc1)nn2C1CCN(CC2CCN(CCCC3CCN(c4ccc5c(c4)C(=O)N(C4CCC(=O)NC4=O)C5=O)CC3)CC2)CC1 (stereo not shown) [Compound 211, 5-(4-(3-(4-((4-(4-amino-3-(4-phenoxyphenyl)-1H-pyrazolo[3,4-d]pyrimidin-1-yl)piperidin-1-yl)methyl)piperidin-1-yl)propyl)piperidin-1-yl)-2-(2,6-dioxopiperidin-3-yl)isoindoline-1,3-dione] | > 75% | 10 to 50 nM | > 10000 nM | 1000 to 10000 nM |  |  |
| Nc1ncnc2c1c(-c1ccc(Oc3ccccc3)cc1)nn2C1CCN(CC2CCN(CCCC3CCN(c4ccc5c(c4)CN(C4CCC(=O)NC4=O)C5=O)CC3)CC2)CC1 (stereo not shown) [Compound 212, 3-(5-(4-(3-(4-((4-(4-amino-3-(4-phenoxyphenyl)-1H-pyrazolo[3,4-d]pyrimidin-1-yl)piperidin-1-yl)methyl)piperidin-1-yl)propyl)piperidin-1-yl)-1-oxoisoindolin-2-yl)piperidine-2,6-dione] | > 90% | 10 to 50 nM | > 10000 nM | 1000 to 10000 nM |  |  |
| Nc1ncnc2c1c(-c1ccc(Oc3ccccc3)cc1)nn2C1CCN(C2CCN(CC3CCN(c4ccc5c(c4)C(=O)N([C@@H]4CCC(=O)NC4=O)C5=O)CC3)CC2)CC1 [Compound 213a, (R)-5-(4-((4-(4-amino-3-(4-phenoxyphenyl)-1H-pyrazolo[3,4-d]pyrimidin-1-yl)[1,4′-bipiperidin]-1′-yl)methyl)piperidin-1-yl)-2-(2,6-dioxopiperidin-3-yl)isoindoline-1,3-dione] | > 90% | < 10 nM | < 1000 nM | < 1000 nM |  |  |
| Nc1ncnc2c1c(-c1ccc(Oc3ccccc3)cc1)nn2C1CCN(C2CCN(CC3CCN(c4ccc5c(c4)CN(C4CCC(=O)NC4=O)C5=O)CC3)CC2)CC1 (stereo not shown) [Compound 214] | < 50% | > 50 nM | 1000 to 10000 nM |  | dose-dependent degradation | 1000 to 10000 nM |
| Nc1ncnc2c1c(-c1ccc(Oc3ccccc3)cc1)nn2C1CCN(C2CCN(CCC3CCN(c4ccc5c(c4)C(=O)N(C4CCC(=O)NC4=O)C5=O)CC3)CC2)CC1 (stereo not shown) [Compound 215, 5-(4-(2-(4-(4-amino-3-(4-phenoxyphenyl)-1H-pyrazolo[3,4-d]pyrimidin-1-yl)-[1,4′-bipiperidin]-1′-yl)ethyl)piperidin-1-yl)-2-(2,6-dioxopiperidin-3-yl)isoindoline-1,3-dione] | > 75% | 10 to 50 nM | < 1000 nM | 1000 to 10000 nM |  |  |
| Nc1ncnc2c1c(-c1ccc(Oc3ccccc3)cc1)nn2C1CCN(C2CCN(CCC3CCN(c4ccc5c(c4)CN(C4CCC(=O)NC4=O)C5=O)CC3)CC2)CC1 (stereo not shown) [Compound 216, 3-(5-(4-(2-(4-(4-amino-3-(4-phenoxyphenyl)-1H-pyrazolo[3,4-d]pyrimidin-1-yl)-[1,4′-bipiperidin]-1′-yl)ethyl)piperidin-1-yl)-1-oxoisoindolin-2-yl)piperidine-2,6-dione] | > 75% | 10 to 50 nM | < 1000 nM | < 1000 nM |  |  |
| Nc1ncnc2c1c(-c1ccc(Oc3ccccc3)cc1)nn2C1CCN(C2CCN(CCN3CCN(c4ccc5c(c4)C(=O)N(C4CCC(=O)NC4=O)C5=O)CC3)CC2)CC1 (stereo not shown) [Compound 217, 5-(4-(2-(4-(4-amino-3-(4-phenoxyphenyl)-1H-pyrazolo[3,4-d]pyrimidin-1-yl)-[1,4′-bipiperidin]-1′-yl)ethyl)piperazin-1-yl)-2-(2,6-dioxopiperidin-3-yl)isoindoline-1,3-dione] | > 75% | 10 to 50 nM | < 1000 nM | 1000 to 10000 nM |  |  |
| Nc1ncnc2c1c(-c1ccc(Oc3ccccc3)cc1)nn2C1CCN(C2CCN(CCN3CCN(c4ccc5c(c4)CN(C4CCC(=O)NC4=O)C5=O)CC3)CC2)CC1 (stereo not shown) [Compound 218, 3-(5-(4-(2-(4-(4-amino-3-(4-phenoxyphenyl)-1H-pyrazolo[3,4-d]pyrimidin-1-yl)-[1,4′-bipiperidin]-1′-yl)ethyl)piperazin-1-yl)-1-oxoisoindolin-2-yl)piperidine-2,6-dione] | > 75% | 10 to 50 nM | < 1000 nM | 1000 to 10000 nM |  |  |
| Nc1ncnc2c1c(-c1ccc(Oc3ccccc3)cc1)nn2C1CCN(C2CCN(CCN3CCC(c4ccc5c(c4)C(=O)N(C4CCC(=O)NC4=O)C5=O)CC3)CC2)CC1 (stereo not shown) [Compound 219, 5-(1-(2-(4-(4-amino-3-(4-phenoxyphenyl)-1H-pyrazolo[3,4-d]pyrimidin-1-yl)-[1,4′-bipiperidin]-1′-yl)ethyl)piperidin-4-yl)-2-(2,6-dioxopiperidin-3-yl)isoindoline-1,3-dione] | > 50% | 10 to 50 nM | 1000 to 10000 nM | 1000 to 10000 nM |  |  |
| Nc1ncnc2c1c(-c1ccc(Oc3ccccc3)cc1)nn2C1CCN(C2CCN(CCN3CCC(c4ccc5c(c4)CN(C4CCC(=O)NC4=O)C5=O)CC3)CC2)CC1 (stereo not shown) [Compound 220, 3-(5-(1-(2-(4-(4-amino-3-(4-phenoxyphenyl)-1H-pyrazolo[3,4-d]pyrimidin-1-yl)-[1,4′-bipiperidin]-1′-yl)ethyl)piperidin-4-yl)-1-oxoisoindolin-2-yl)piperidine-2,6-dione] | > 75% | 10 to 50 nM | 1000 to 10000 nM | 1000 to 10000 nM |  |  |
| Nc1ncnc2c1c(-c1ccc(Oc3ccccc3)cc1)nn2C1CCN(C2CCN(CCCN3CCN(c4ccc5c(c4)C(=O)N(C4CCC(=O)NC4=O)C5=O)CC3)CC2)CC1 (stereo not shown) [Compound 221, 5-(4-(3-(4-(4-amino-3-(4-phenoxyphenyl)-1H-pyrazolo[3,4-d]pyrimidin-1-yl)-[1,4′-bipiperidin]-1′-yl)propyl)piperazin-1-yl)-2-(2,6-dioxopiperidin-3-yl)isoindoline-1,3-dione] | > 75% | 10 to 50 nM | 1000 to 10000 nM | > 10000 nM |  |  |

Source: patent publication US12139492B2 (Endotarget Inc., priority 2021, dated 2024)
